Experimental data as given in patent US10414759B2, “Phenylthiazoles and uses thereof” (Purdue Research Foundation, priority 2017, dated 2019).
Values after ≈ are worked out from the molar mass of the structure shown. Where two headings read alike, the source gives them in different places.

Assays:
[1] = system: methicillin-sensitive S. aureus (MSSA), MRSA and VRSA strains; details: literature (Moran, N. Engl. J. Med. 2006); cited from earlier work
[2] = system: MRSA (2658 RCMB); assay: MIC against MRSA (2658 RCMB), broth dilution; format: cell-based, Staphylococcus aureus; details: Staphylococcus aureus; Table 7; initial screening, MRSA (2658 RCMB); read-out: minimum inhibitory concentration (MIC)
Outline: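 Broth dilution in cation-adjusted Mueller-Hinton broth with an inoculum of about 5×10^5 CFU/mL (from a 0.5 McFarland suspension), using triplicate serial dilutions. MIC was the lowest concentration with no visible growth by visual inspection, reported as the mean of triplicates.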

[3] = system: MRSA (USA300); assay: Time-kill assay; format: cell-based, Staphylococcus aureus
Description: Aliquots (100 μL) were taken from each sample after 2, 4, 6, 8, 10, 12, and 24 hours, serially diluted in phosphate-buffered saline, and transferred to Trypticase soy agar (TSA) (Becton, Dickinson and Company, Sparks, Md., USA) plates. Plates were incubated at 37° C. for at least 16 hours before counting viable CFU/mL to determine the time required to reduce the bacterial cell count by 3-log10.

[4] = system: S. aureus ATCC 6538; assay: MIC/MBC S. aureus strains (Table 8); format: cell-based; details: Staphylococcus aureus, ATCC6538
Description: (§1) A bacterial solution equivalent to 0.5 McFarland standard was prepared and diluted in cation-adjusted Mueller-Hinton broth (CAMHB) to achieve a bacterial concentration of about 5×10^5 CFU/mL and seeded in 96-well plates. Enterococcus faecium was diluted in brain heart infusion broth. Enterococcus faecalis, Streptococcus pneumonia and Listeria monocytogenes were diluted in tryptone soya broth (TSB).

[5] = system: S. aureus NRS107; assay: MIC/MBC S. aureus strains (Table 8); format: cell-based, Staphylococcus aureus; details: Staphylococcus aureus; Table 8; S. aureus NRS107
Description: as §1

[6] = system: Cephalosporin-resistant Streptococcus pneumoniae ATCC 51916; assay: MIC/MBC Gram-positive pathogens (Table 9); format: cell-based; details: ATCC51916
Description: as §1

[7] = system: Enterococcus faecalis ATCC 51299 (VRE); assay: MIC/MBC Gram-positive pathogens (Table 9); format: cell-based
Description: as §1

[8] = system: Methicillin-resistant Streptococcus pneumoniae ATCC 700677; assay: MIC/MBC Gram-positive pathogens (Table 9); format: cell-based; details: ATCC700677
Description: as §1

[9] = system: MRSA USA400 (NRS123); assay: Multi-step resistance selection experiment; format: cell-based, Staphylococcus aureus; details: MRSA USA400, sub-lethal doses, 14 daily passages
Description: To determine if MRSA would be capable of forming resistance to the compounds quickly, a multi-step resistance selection experiment was conducted, as described previously. The broth microdilution assay was utilized to determine the MIC of the tested compounds and rifampicin exposed to MRSA USA400 (NRS123) for 14 passages over a period of two weeks. Resistance was classified as a greater than four-fold increase in the initial MIC, as reported elsewhere.

[10] = system: human colorectal (Caco-2) cell; assay: In vitro cytotoxicity against Caco-2 cells (MTS); format: cell-based; details: at 32 μg/mL
Description: Tested compounds were assayed (at concentrations of 16, 32, and 64 μg/mL) against a human colorectal (Caco-2) cell to determine the potential toxic effect to mammalian cells in vitro. Briefly, cells were cultured in Dulbecco's Modified Eagle Medium (DMEM) supplemented with 20% fetal bovine serum (FBS), non-essential amino acids (1×), and penicillin-streptomycin at 37° C. with CO2 (5%). Control cells received DMSO alone at a concentration equal to that in drug-treated cell samples. The cells were incubated with the compounds (in triplicate) in a 96-well plate at 37° C. with CO2 (5%) for two hours. The assay reagent MTS 3-(4,5-dimethylthiazol-2-yl)-5-(3-carboxymethoxyphenyl)-2-(4-sulfophenyl)-2H-tetrazolium) (Promega, Madison, Wis., USA) was subsequently added and the plate was incubated for four hours. Absorbance readings (at OD490) were taken using a kinetic microplate reader (Molecular Devices, Sunnyvale, Calif., USA). The quantity of viable cells after treatment with each compound was expressed as a percentage of the viability of DMSO-treated control cells (average of triplicate wells±standard deviation). The toxicity data was analyzed via a two-way ANOVA, with post hoc Sidak's multiple comparisons test (P<0.05), utilizing GraphPad Prism 6.0 (GraphPad Software, La Jolla, Calif.).

[11] = In vivo PK in rats after single IV bolus injection; parameters: species or system Sprague-Dawley (SD) rats
Description: In vivo Pharmacokinetics. Pharmacokinetic studies were performed in male naïve Sprague-Dawley (SD) rats (three animals) following Institutional Animal Care and Use Committee guidelines. An IV bolus of a 5 μM solution of compound 19 was directly administered via tail-vein injection. Blood samples were collected over a 12-hour period post dose into Vacutainer tubes containing EDTA-K2. Plasma was isolated, and the concentration of tested compounds in plasma was determined with LC/MS/MS after protein precipitation with acetonitrile. Two-compartmental pharmacokinetic analysis was performed on plasma concentration data in order to calculate pharmacokinetic parameters.

[12] = system: NRS119 (MRSA); assay: MIC/MBC clinical isolate panel (Table 3); format: cell-based, S. aureus; details: Staphylococcus aureus
Description: (§2) Bacteria were cultured in cation-adjusted Mueller Hinton broth in a 96-well plate. Compounds, using triplicate samples, were added to the plate and serially diluted. […] Plates were visually inspected and the MIC was categorized as the concentration at which no visible growth of bacteria was observed. The average of triplicate MIC determinations is reported.
as §1

[13] = system: NRS123 (MRSA USA400); assay: MIC/MBC clinical isolate panel (Table 3); format: cell-based, S. aureus; details: Staphylococcus aureus
Description: as §2, §1

[14] = system: NRS382 (MRSA USA100); assay: MIC/MBC clinical isolate panel (Table 3); format: cell-based, S. aureus; details: Staphylococcus aureus
Description: as §2, §1

[15] = system: NRS383 (MRSA USA200); assay: MIC/MBC clinical isolate panel (Table 3); format: cell-based, S. aureus; details: Staphylococcus aureus
Description: as §2, §1

[16] = system: NRS384 (MRSA USA300); assay: MIC/MBC clinical isolate panel (Table 3); format: cell-based, S. aureus; details: Staphylococcus aureus
Description: as §2, §1

[17] = system: NRS72 (MSSA); assay: MIC/MBC clinical isolate panel (Table 3); format: cell-based, S. aureus; details: Staphylococcus aureus
Description: as §2, §1

[18] = system: VRSA10; assay: MIC/MBC clinical isolate panel (Table 3); format: cell-based, S. aureus; details: Staphylococcus aureus
Description: as §2, with “MRSA clinical isolates, and vancomycin-resistant Staphylococcus aureus (VRSA) strain were obtained through the Network of Antimicrobial Resistance in Staphylococcus aureus (NARSA) program. In addition, vancomycin-resistant Enterococcus faecium (VRE) strain was obtained from the ATCC. Bacteria” for “Bacteria”
(§3) The minimum inhibitory concentration (MIC) of tested compounds and control antibiotics were determined using the broth microdilution method in accordance with the recommendations contained in the Clinical and Laboratory Standards Institute guidelines, against methicillin-sensitive (ATCC 6538 and NRS107), methicillin-resistant (MRSA), and vancomycin-resistant (VRSA) Staphylococcus aureus, Staphylococcus epidermidis, Enterococcus faecalis, E. faecium, Listeria monocytogenes, and Streptococcus pneumoniae clinical isolates. A bacterial solution equivalent to 0.5 McFarland standard was prepared and diluted in cation-adjusted Mueller-Hinton broth (CAMHB) to achieve a bacterial concentration of about 5×10^5 CFU/mL and seeded in 96-well plates. Enterococcus faecium was diluted in brain heart infusion broth. Enterococcus faecalis, Streptococcus pneumonia and Listeria monocytogenes were diluted in tryptone soya broth (TSB). Compounds and control drugs were added in the first row of 96-well plates and serially diluted (to achieve a concentration gradient ranging from 128 to 1 μg/mL). Plates were then incubated aerobically at 37° C. for at least 18 hours. The minimum bactericidal concentration (MBC) of the active compounds was tested by plating 5 μL from wells with no growth onto Tryptic soy agar (TSA) plates.

[19] = system: VRE ATCC 700221; assay: MIC/MBC clinical isolate panel (Table 3); format: cell-based, Enterococcus faecium; details: Enterococcus
Description: as §2, with “MRSA clinical isolates, and vancomycin-resistant Staphylococcus aureus (VRSA) strain were obtained through the Network of Antimicrobial Resistance in Staphylococcus aureus (NARSA) program. In addition, vancomycin-resistant Enterococcus faecium (VRE) strain was obtained from the ATCC. Bacteria” for “Bacteria”
as §3

[20] = system: VRS10 (VRSA); assay: MIC/MBC S. aureus strains (Table 8); format: cell-based; details: Staphylococcus aureus, VRSA
Description: as §3

[21] = system: VRS12 (VRSA); assay: MIC/MBC S. aureus strains (Table 8); format: cell-based; details: Staphylococcus aureus, VRSA
Description: as §3

[22] = system: Enterococcus faecium ATCC 700221 (VRE); assay: MIC/MBC Gram-positive pathogens (Table 9); format: cell-based; details: Enterococcus faecium
Description: as §3

[23] = system: methicillin-sensitive S. aureus (MSSA), MRSA and VRSA strains; assay: MIC/MBC summary over the S. aureus strain panel; format: cell-based
Description: as §3

[24] = system: MRSA USA300 (NRS384) biofilm; assay: MRSA biofilm eradication, microtiter dish biofilm formation assay; format: cell-based, Staphylococcus aureus
Description: The bacterial suspension was removed and compounds were added at concentrations ranging from 128 to 1 μg/mL in TSB. Compounds were incubated with the biofilm at 37° C. for 24 hours. In order to quantify the biofilm mass, the bacterial suspension was removed and wells were washed with phosphate-buffered saline to remove planktonic bacteria. An aliquot of 0.1% crystal violet was added to each well to stain biofilm mass. After 30 minutes, wells were washed with sterile water and dried. Wells were de-stained using 100% ethanol prior to quantifying biofilm mass using a spectrophotometer (OD595). Data are presented as percent eradication of MRSA USA300 biofilm for each test agent relative to the negative (DMSO) control wells. Data were analyzed using two-way ANOVA with post-hoc Sidak's test for multiple comparisons (P<0.05).

CCO/N=C(\C(=O)N[C@@H]1C(=O)N2C(C(=O)[O-])=C(Sc3nc(-c4cc[n+](C)cc4)cs3)CS[C@H]12)c1nsc(N)n1 [cefatroline]
MIC range against MRSA and VRSA, reported [1]: 0.5 to 4 µg/mL

Cc1nc(-c2ccc(C(C)(C)C)cc2)sc1-c1ccnc(NCCN)n1 [Compound 54, N-(4-(2-(4-(tert-Butyl)phenyl)-4-methylthiazol-5-yl)pyrimidin-2-yl)ethane-1,2-diamine]
MIC [2]: 1.17 µg/mL (≈ 3.18 µM) | bactericidal / bacteriostatic behaviour in time-kill assay, in words ([3]; MRSA, 3.0×MIC): rapid bactericidal activity | time to completely eradicate the MRSA inoculum ([3]; t-butyl series, 3.0×MIC): within two to four hours | MIC [4]: 4 µg/mL (≈ 10.9 µM) | MIC [5]: 4 µg/mL (≈ 10.9 µM) | MBC [6]: 16 µg/mL (≈ 43.5 µM) | MIC ([7]; Table 9, Enterococcus faecalis ATCC 51299 (VRE)): 16 µg/mL (≈ 43.5 µM) | MBC ([7]; Table 9, Enterococcus faecalis ATCC 51299 (VRE), read-out: MBC): 16 µg/mL (≈ 43.5 µM) | MBC [8]: 16 µg/mL (≈ 43.5 µM) | MIC [8]: 2 µg/mL (≈ 5.44 µM) | increase in MIC by/after the ninth passage [9]: one-fold | tolerability to human colorectal cells, in words [10]: highly tolerable | AUC [11]: 3980 ng·h/mL | CL (clearance) [11]: 1.26 L/h | Vdss (volume of distribution at the steady state) [11]: 3.39 L | Vβ (volume of distribution in 2nd compartment, peripheral tissues) [11]: 16.36 L | t1/2 (half-life) [11]: 9.03 h

CN[C@H](CC(C)C)C(=O)N[C@H]1C(=O)N[C@@H](CC(N)=O)C(=O)N[C@H]2C(=O)N[C@H]3C(=O)N[C@H](C(=O)N[C@H](C(=O)O)c4cc(O)cc(O)c4-c4cc3ccc4O)[C@H](O)c3ccc(c(Cl)c3)Oc3cc2cc(c3O[C@@H]2O[C@H](CO)[C@@H](O)[C@H](O)[C@H]2O[C@H]2C[C@](C)(N)[C@H](O)[C@H](C)O2)Oc2ccc(cc2Cl)[C@H]1O [Vancomycin, vancomycin, reference compound]
MIC [12]: 1 µg/mL (≈ 0.69 µM) | MIC [13]: 1 µg/mL (≈ 0.69 µM) | MIC [14]: 1 µg/mL (≈ 0.69 µM) | MIC [15]: 1 µg/mL (≈ 0.69 µM) | MIC [16]: 1 µg/mL (≈ 0.69 µM) | MIC [17]: 2 µg/mL (≈ 1.38 µM) | MBC [18]: > 64 µg/mL | MIC [18]: > 64 µg/mL | MBC [19]: > 64 µg/mL | MIC [19]: > 64 µg/mL | time to three-log10 reduction in the initial inoculum of MRSA ([3]; 3.0×MIC): 24 hours | time required to reduce the MRSA inoculum to zero colony forming units ([3]; MRSA US300, 3.0×MIC): 24 h | MBC [20]: > 64 µg/mL | MIC [20]: > 64 µg/mL | MBC [21]: > 64 µg/mL | MIC [21]: > 64 µg/mL | MBC [22]: > 64 µg/mL | MIC [22]: > 64 µg/mL | MBC ([7]; Enterococcus faecalis): 64 µg/mL (≈ 44.2 µM) | MIC range against MRSA [23]: 1 to 2 µg/mL | MRSA biofilm mass disrupted ([24]; at 1×MIC): 3% | reduction of MRSA biofilm mass ([24]; at 32×MIC): 34%
